# Where a name gives a salt, the structure may show the parent alone.
# System: KMS.12.BM cells
# Assay: KMS.12.BM Cell Viability Assay (Example B1)
# Format: cell-based, human
# Conditions: Homo sapiens, 72 h, 3 days, Cell Titer-GLO, read-out: KMS cellular IC50
# In short: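 KMS.12.BM human myeloma cells, 5000 cells/well in RPMI with 10% FBS, exposed to a compound concentration range for 3 days. Viable cells measured by ATP-based Cell Titer-GLO luminescence after 10 min at room temperature.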
row,Structure (SMILES),IC50 [µM]
1,"Cc1noc(C)c1-c1ccc2nc(N3CCNCC3)n3c2c1OC[C@@H]3c1ccccn1 [Example 150, (4S)-7-(3,5-Dimethylisoxazol-4-yl)-2-piperazin-1-yl-4-pyridin-2-yl-4,5-dihydroimidazo[1,5,4-de][1,4]benzoxazine trihydrochloride]",< 1
2,"Cc1noc(C)c1-c1ccc2nc(N3CCN(CC(=O)N(C)C)CC3)n3c2c1OC[C@@H]3c1ccccn1 [Example 151, 2-{4-[(4S)-7-(3,5-Dimethylisoxazol-4-yl)-4-pyridin-2-yl-4,5-dihydroimidazo[1,5,4-de][1,4]benzoxazin-2-yl]piperazin-1-yl}-N,N-dimethylacetamide]",< 1
3,"Cc1noc(C)c1-c1ccc2nc(N3CC[C@@H](N(C)C(=O)CC#N)C3)n3c2c1OC[C@@H]3c1ccccn1 [Example 152, 2-Cyano-N-{(3R)-1-[(4S)-7-(3,5-dimethylisoxazol-4-yl)-4-pyridin-2-yl-4,5-dihydroimidazo[1,5,4-de][1,4]benzoxazin-2-yl]pyrrolidin-3-yl}-N-methylacetamide]",< 1
4,"Cc1noc(C)c1-c1ccc2nc(N3CC[C@@H](NC(=O)N4CCOCC4)C3)n3c2c1OC[C@@H]3c1ccccn1 [Example 153, N-{(3R)-1-[(4S)-7-(3,5-Dimethylisoxazol-4-yl)-4-pyridin-2-yl-4,5-dihydroimidazo[1,5,4-de][1,4]benzoxazin-2-yl]pyrrolidin-3-yl}morpholine-4-carboxamide]",< 1
5,"Cc1noc(C)c1-c1ccc2nc(C)n3c2c1OC[C@@H]3c1ccccn1 [Example 154, 7-(3,5-Dimethylisoxazol-4-yl)-2-methyl-4-pyridin-2-yl-4,5-dihydroimidazo[1,5,4-de][1,4]benzoxazine]",< 1
6,"COC(=O)N[C@@H]1CCN(c2nc3ccc(-c4c(C)noc4C)c4c3n2[C@@H](c2ccccn2)CO4)C1 [Example 155, Methyl {(3R)-1-[(4S)-7-(3,5-dimethylisoxazol-4-yl)-4-pyridin-2-yl-4,5-dihydroimidazo[1,5,4-de][1,4]benzoxazin-2-yl]pyrrolidin-3-yl}carbamate]",< 1
7,"Cc1noc(C)c1-c1cc(F)c2nc(N(C)C)n3c2c1OCC3c1cccnc1 (centres unmarked) [Example 156, 7-(3,5-Dimethylisoxazol-4-yl)-9-fluoro-N,N-dimethyl-4-pyridin-3-yl-4,5-dihydroimidazo[1,5,4-de][1,4]benzoxazin-2-amine]",< 1
8,"Cc1noc(C)c1-c1cc(F)c2nc(N3CCC(O)C3)n3c2c1OCC3c1cccnc1 (centres unmarked) [Example 157, 1-[7-(3,5-Dimethylisoxazol-4-yl)-9-fluoro-4-pyridin-3-yl-4,5-dihydroimidazo[1,5,4-de][1,4]benzoxazin-2-yl]pyrrolidin-3-ol]",< 1
9,"CCNc1nc2c(F)cc(-c3c(C)noc3C)c3c2n1C(c1cccnc1)CO3 (centres unmarked) [Example 158, 7-(3,5-Dimethylisoxazol-4-yl)-N-ethyl-9-fluoro-4-pyridin-3-yl-4,5-dihydroimidazo[1,5,4-de][1,4]benzoxazin-2-amine]",< 1
10,"Cc1noc(C)c1-c1ccc2nc(N3CCOCC3)n3c2c1OC[C@@H]3c1ccccn1 [Example 161, (4S)-7-(3,5-dimethylisoxazol-4-yl)-2-morpholin-4-yl-4-pyridin-2-yl-4,5-dihydroimidazo[1,5,4-de][1,4]benzoxazine]",< 1
11,"Cc1noc(C)c1-c1ccc2nc(N3CCCC3)n3c2c1OC[C@@H]3c1ccccn1 [Example 162, (4S)-7-(3,5-dimethylisoxazol-4-yl)-4-pyridin-2-yl-2-pyrrolidin-1-yl-4,5-dihydroimidazo[1,5,4-de][1,4]benzoxazine]",< 1
12,"Cc1noc(C)c1-c1ccc2nc(N3CCN(C)CC3)n3c2c1OC[C@@H]3c1ccccn1 [Example 163, (4S)-7-(3,5-dimethylisoxazol-4-yl)-2-(4-methylpiperazin-1-yl)-4-pyridin-2-yl-4,5-dihydroimidazo[1,5,4-de][1,4]benzoxazine]",< 1
13,"Cc1noc(C)c1-c1ccc2nc(N3CCC3)n3c2c1OC[C@@H]3c1ccccn1 [Example 164, (4S)-2-azetidin-1-yl-7-(3,5-dimethylisoxazol-4-yl)-4-pyridin-2-yl-4,5-dihydroimidazo[1,5,4-de][1,4]benzoxazine]",< 1
14,"Cc1noc(C)c1-c1ccc2nc(N3CC(O)C3)n3c2c1OC[C@@H]3c1ccccn1 [Example 165, 1-[(4S)-7-(3,5-dimethylisoxazol-4-yl)-4-pyridin-2-yl-4,5-dihydroimidazo[1,5,4-de][1,4]benzoxazin-2-yl]azetidin-3-ol]",< 1
15,"Cc1noc(C)c1-c1ccc2nc(N3CCN(C)C(=O)C3)n3c2c1OC[C@@H]3c1ccccn1 [Example 166, 4-[(4S)-7-(3,5-dimethylisoxazol-4-yl)-4-pyridin-2-yl-4,5-dihydroimidazo[1,5,4-de][1,4]benzoxazin-2-yl]-1-methylpiperazin-2-one]",< 1
16,"CCOC(=O)N1CCN(c2nc3ccc(-c4c(C)noc4C)c4c3n2[C@@H](c2ccccn2)CO4)CC1 [Example 167, ethyl 4-[(4S)-7-(3,5-dimethylisoxazol-4-yl)-4-pyridin-2-yl-4,5-dihydroimidazo[1,5,4-de][1,4]benzoxazin-2-yl]piperazine-1-carboxylate]",< 1
17,"Cc1noc(C)c1-c1ccc2nc(N3CCC(O)CC3)n3c2c1OC[C@@H]3c1ccccn1 [Example 169, 1-[(4S)-7-(3,5-dimethylisoxazol-4-yl)-4-pyridin-2-yl-4,5-dihydroimidazo[1,5,4-de][1,4]benzoxazin-2-yl]piperidin-4-ol]",< 1
18,"Cc1noc(C)c1-c1ccc2nc(N3CCC[C@@H](O)C3)n3c2c1OC[C@@H]3c1ccccn1 [Example 170A, (3R)-1-[(4S)-7-(3,5-dimethylisoxazol-4-yl)-4-pyridin-2-yl-4,5-dihydroimidazo[1,5,4-de][1,4]benzoxazin-2-yl]piperidin-3-ol]",< 1
19,"Cc1noc(C)c1-c1ccc2nc(N3CCC[C@H](O)C3)n3c2c1OC[C@@H]3c1ccccn1 [Example 170B, (3S)-1-[(4S)-7-(3,5-dimethylisoxazol-4-yl)-4-pyridin-2-yl-4,5-dihydroimidazo[1,5,4-de][1,4]benzoxazin-2-yl]piperidin-3-ol]",< 1
20,"Cc1noc(C)c1-c1ccc2nc(N3CCC(N(C)C)CC3)n3c2c1OC[C@@H]3c1ccccn1 [Example 171, 1-[(4S)-7-(3,5-dimethylisoxazol-4-yl)-4-pyridin-2-yl-4,5-dihydroimidazo[1,5,4-de][1,4]benzoxazin-2-yl]-N,N-dimethylpiperidin-4-amine]",< 1
21,"Cc1noc(C)c1-c1ccc2nc(N3CCNC(=O)C3)n3c2c1OC[C@@H]3c1ccccn1 [Example 172, 4-[(4S)-7-(3,5-dimethylisoxazol-4-yl)-4-pyridin-2-yl-4,5-dihydroimidazo[1,5,4-de][1,4]benzoxazin-2-yl]piperazin-2-one]",< 1
22,"Cc1noc(C)c1-c1ccc2nc(N3CCN(S(C)(=O)=O)CC3)n3c2c1OC[C@@H]3c1ccccn1 [Example 173, (4S)-7-(3,5-dimethylisoxazol-4-yl)-2-[4-(methylsulfonyl)piperazin-1-yl]-4-pyridin-2-yl-4,5-dihydroimidazo[1,5,4-de][1,4]benzoxazine]",< 1
23,"Cc1noc(C)c1-c1ccc2nc(N3CCN(C(C)C)CC3)n3c2c1OC[C@@H]3c1ccccn1 [Example 174, (4S)-7-(3,5-dimethylisoxazol-4-yl)-2-(4-isopropylpiperazin-1-yl)-4-pyridin-2-yl-4,5-dihydroimidazo[1,5,4-de][1,4]benzoxazine]",< 1
